Common to all, as to assay: ITC ([…] °C); DSC ΔTm […] °C
What all share (assay type): binding

The target in test [1] is T1, Athe_2052 (Caldicellulosiruptor bescii, UniProt B9MLD9).
T1 construct: Athe_2052 without its signal peptide, N-terminal hexa-histidine tag

The target of test [2] is T1, Athe_2052. The source holds these as a separate data set.
In test [3] the target is T1, Athe_2052. This is another data set of the same source.

Like-named read-outs stand apart in the source and are kept apart here.

T1 sequence (B9MLD9 entry or part of it): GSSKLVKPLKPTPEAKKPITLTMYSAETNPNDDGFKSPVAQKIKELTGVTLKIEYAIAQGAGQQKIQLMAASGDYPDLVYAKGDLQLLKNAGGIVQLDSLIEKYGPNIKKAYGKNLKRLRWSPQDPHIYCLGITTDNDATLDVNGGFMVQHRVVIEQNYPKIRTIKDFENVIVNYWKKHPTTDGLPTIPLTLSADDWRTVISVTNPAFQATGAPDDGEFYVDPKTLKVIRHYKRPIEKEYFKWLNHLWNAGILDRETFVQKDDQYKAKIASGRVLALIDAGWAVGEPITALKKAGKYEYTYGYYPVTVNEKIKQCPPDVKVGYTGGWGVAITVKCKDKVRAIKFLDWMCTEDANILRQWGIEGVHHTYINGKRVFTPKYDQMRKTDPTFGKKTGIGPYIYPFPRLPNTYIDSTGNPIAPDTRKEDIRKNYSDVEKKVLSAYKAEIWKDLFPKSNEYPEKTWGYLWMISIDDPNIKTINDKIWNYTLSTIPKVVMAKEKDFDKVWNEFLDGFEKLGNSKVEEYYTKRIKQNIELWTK

With `OC[C@H]1O[C@@H](O[C@H]2[C@H](O)[C@@H](O)[C@H](O[C@H]3[C@H](O)[C@@H](O)[C@H](O[C@H]4[C@H](O)[C@@H](O)C(O)O[C@@H]4CO)O[C@@H]3CO)O[C@@H]2CO)[C@H](O)[C@@H](O)[C@@H]1O` (stereo partly drawn) [Cellotetraose], the Kd at Athe_2052 [1] worked out at 214 nM.

For the molecule `OC[C@H]1OC(O)[C@H](O)[C@@H](O)[C@@H]1O[C@@H]1O[C@H](CO[C@H]2OC[C@@H](O)[C@H](O)[C@H]2O)[C@@H](O[C@@H]2O[C@H](CO[C@H]3OC[C@@H](O)[C@H](O)[C@H]3O)[C@@H](O[C@@H]3O[C@H](CO[C@H]4OC[C@@H](O)[C@H](O)[C@H]4O)[C@@H](O)[C@H](O)[C@H]3O)[C@H](O)[C@H]2O)[C@H](O)[C@H]1O` (stereo partly drawn) [XXXG, xyloglucan heptasaccharide], at Athe_2052 [2], binding was characterised by a dissociation constant (Kd) of 14 nM. That is a double-digit nanomolar value.

Regarding `OC[C@H]1O[C@@H](O[C@H]2[C@H](O)[C@@H](O)[C@H](O[C@H]3[C@H](O)[C@@H](O)C(O)O[C@@H]3CO)O[C@@H]2CO)[C@H](O)[C@@H](O)[C@@H]1O` (stereo partly drawn) [Cellotriose], at Athe_2052 [3], binding was put at a Kd of 247 nM.

For orientation: Kd means the free concentration of one partner at which half of the binding sites on the other are occupied at equilibrium, for simple one-to-one binding. Read a low Kd as tighter binding.
